Test [1] has as its target T1, Transient receptor potential cation channel subfamily V member 1 (Homo sapiens, UniProt Q8NER1). The test can be described thus: Induced [Ca2+] influx in Vanilloid receptor subtype 1 expressing HEK 293 cells. Format: functional, cell-based, HEK293.
The target in test [2] is T1, Transient receptor potential cation channel subfamily V member 1. The test can be described thus: Percent induction of [Ca2+] influx compared to subsequent 80% maximal capsaicin response in human vanilloid receptor 1 expressing HEK293 cells. Type of test: functional, cell-based.
The target is the same in test [3]. The test can be described thus: Inhibition of [3H]RTX binding to human Vanilloid receptor subtype 1 expressed in HEK293 cells. Type of test: cell-based.
Test [4] concerns the target Transient receptor potential cation channel subfamily V member 1 (Rattus norvegicus) (UniProt O35433). The test can be described thus: Percent induction of [Ca2+] influx compared to subsequent 80% maximal capsaicin response in rat Vanilloid receptor 1 expressing HEK293 cells. Type of test: functional, cell-based.

Each structure is given as a SMILES string.

T1 sequence (Q8NER1 whole entry): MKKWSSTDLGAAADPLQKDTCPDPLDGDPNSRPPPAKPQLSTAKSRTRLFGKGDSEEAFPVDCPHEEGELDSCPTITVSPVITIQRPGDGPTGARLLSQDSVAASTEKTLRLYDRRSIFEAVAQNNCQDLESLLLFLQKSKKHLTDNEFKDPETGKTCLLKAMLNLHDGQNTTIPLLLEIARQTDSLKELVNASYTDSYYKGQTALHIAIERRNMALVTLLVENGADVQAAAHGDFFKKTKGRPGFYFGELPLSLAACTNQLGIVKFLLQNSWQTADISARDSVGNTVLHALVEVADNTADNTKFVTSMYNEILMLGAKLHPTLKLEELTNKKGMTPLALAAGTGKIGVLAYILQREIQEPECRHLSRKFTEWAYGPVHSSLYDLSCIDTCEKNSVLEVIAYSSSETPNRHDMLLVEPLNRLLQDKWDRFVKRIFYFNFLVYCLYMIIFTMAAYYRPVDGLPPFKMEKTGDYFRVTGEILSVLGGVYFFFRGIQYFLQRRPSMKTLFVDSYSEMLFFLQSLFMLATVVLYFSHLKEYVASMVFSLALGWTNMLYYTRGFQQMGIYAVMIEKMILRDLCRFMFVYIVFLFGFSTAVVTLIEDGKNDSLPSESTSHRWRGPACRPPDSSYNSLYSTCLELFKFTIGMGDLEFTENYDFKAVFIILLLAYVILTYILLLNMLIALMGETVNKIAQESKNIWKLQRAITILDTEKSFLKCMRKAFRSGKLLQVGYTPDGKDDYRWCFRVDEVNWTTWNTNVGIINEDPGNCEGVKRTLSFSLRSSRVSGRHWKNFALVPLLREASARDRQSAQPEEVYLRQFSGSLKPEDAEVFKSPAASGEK
Transient receptor potential cation channel subfamily V member 1 (Rattus norvegicus), sequence (O35433 whole entry): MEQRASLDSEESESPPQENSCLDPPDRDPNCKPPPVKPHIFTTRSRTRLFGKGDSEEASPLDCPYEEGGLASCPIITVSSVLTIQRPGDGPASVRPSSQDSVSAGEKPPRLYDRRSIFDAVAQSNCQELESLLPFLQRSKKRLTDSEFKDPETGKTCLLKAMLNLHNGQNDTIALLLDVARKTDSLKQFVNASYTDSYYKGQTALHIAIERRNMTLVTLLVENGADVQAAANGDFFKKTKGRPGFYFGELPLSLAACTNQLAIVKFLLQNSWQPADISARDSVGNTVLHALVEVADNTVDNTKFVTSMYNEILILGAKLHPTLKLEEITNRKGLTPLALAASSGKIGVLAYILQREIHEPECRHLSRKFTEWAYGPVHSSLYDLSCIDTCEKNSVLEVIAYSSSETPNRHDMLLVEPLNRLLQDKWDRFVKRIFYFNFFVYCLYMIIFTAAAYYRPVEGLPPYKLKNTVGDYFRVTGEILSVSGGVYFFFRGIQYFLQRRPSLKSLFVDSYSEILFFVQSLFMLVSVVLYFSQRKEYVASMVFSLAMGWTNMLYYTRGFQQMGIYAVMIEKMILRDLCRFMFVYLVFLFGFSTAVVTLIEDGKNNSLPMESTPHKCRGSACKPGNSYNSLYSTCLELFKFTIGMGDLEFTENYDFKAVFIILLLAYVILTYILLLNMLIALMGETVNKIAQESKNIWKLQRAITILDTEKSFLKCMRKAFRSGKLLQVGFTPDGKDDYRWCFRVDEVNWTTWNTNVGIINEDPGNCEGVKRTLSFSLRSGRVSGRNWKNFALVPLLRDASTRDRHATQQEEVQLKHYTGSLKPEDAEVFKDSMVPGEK

With `C=C(C)[C@]12C[C@@H](C)[C@@]34O[C@](Cc5ccccc5)(O[C@@H]1[C@@H]3C=C(COC(=O)Cc1ccc(O)c(OC)c1)C[C@]1(O)C(=O)C(C)=CC41)O2` (single isomer, unassigned) [RESINIFERATOXIN], in test [1], the EC50 (in general, the concentration giving half of the maximal effect) worked out at 1.9 nM. Besides, in test [2], the Efficacy stood at 116%. In addition, the Ki (in general, the dissociation constant of the complex between target and ligand, obtained from inhibition or displacement) in test [3] worked out at 0.48 nM.
For `C=C(C)[C@]12C[C@@H](C)[C@@]34OC(Cc5ccccc5)(O[C@@H]1[C@@H]3C=C(COC(=O)Cc1ccc(O)c(OC)c1I)C[C@]1(O)C(=O)C(C)=C[C@@H]41)O2`, the IC50 (commonly the concentration that inhibits the measured activity by half) in test [1] stood at 27 nM. The Ki in test [3] amounted to 1.4 nM.
`C=C(C)[C@]12C[C@@H](C)[C@@]34O[C@](Cc5ccccc5)(O[C@@H]1[C@@H]3C=C(COC(=O)Cc1cc(OC)c(OC(C)=O)cc1I)C[C@]1(O)C(=O)C(C)=C[C@@H]41)O2` returned an EC50 in test [1] of 935 nM. Also, the Efficacy in test [2] is 75%. Moreover, in test [3], the Ki was determined as 1.46 nM.
`C=C(C)[C@]12C[C@@H](C)[C@@]34O[C@](Cc5ccccc5)(O[C@@H]1[C@@H]3C=C(COC(=O)Cc1cc(OC)c(O)cc1I)C[C@]1(O)C(=O)C(C)=C[C@@H]41)O2` registered an EC50 in test [1] of 130 nM. Moreover, the Efficacy in test [2] was 50%; in test [4], 92%. The compound also came in with a Ki in test [3] of 0.71 nM.

The values are drawn from ChEMBL document CHEMBL1135286, “Synthesis and in vitro evaluation of a novel iodinated resiniferatoxin derivative that is an agonist at the human vanilloid VR1 receptor” (Bioorg Med Chem Lett, 2002).
